Experimental data published in ChEMBL document CHEMBL1201862, “PubChem BioAssay data set” (2004).
Activity calls are given as the source filed them.

Experiments:
[1] = THP-1 cell cytotoxicity, dose response, cytotoxicity control for non-replicating M. tuberculosis project (AID 489025); assay type: functional
[2] = Vero E6 cell cytotoxicity, dose response, cytotoxicity control for non-replicating M. tuberculosis project, secondary assay (AID 492998); assay type: functional, VeroE6; conditions: Vero C1008
Aminopeptidase N = biological target: T1, Aminopeptidase N (Plasmodium falciparum FcB1/Columbia, UniProt O96935); test: P. falciparum M1AAP inhibitors, biochemical, fluorogenic H-Leu-NHMec substrate, 1536-well (AID 1445); parameters: species or system Plasmodium falciparum 3D7, 3D7
T1 sequence (O96935 whole entry): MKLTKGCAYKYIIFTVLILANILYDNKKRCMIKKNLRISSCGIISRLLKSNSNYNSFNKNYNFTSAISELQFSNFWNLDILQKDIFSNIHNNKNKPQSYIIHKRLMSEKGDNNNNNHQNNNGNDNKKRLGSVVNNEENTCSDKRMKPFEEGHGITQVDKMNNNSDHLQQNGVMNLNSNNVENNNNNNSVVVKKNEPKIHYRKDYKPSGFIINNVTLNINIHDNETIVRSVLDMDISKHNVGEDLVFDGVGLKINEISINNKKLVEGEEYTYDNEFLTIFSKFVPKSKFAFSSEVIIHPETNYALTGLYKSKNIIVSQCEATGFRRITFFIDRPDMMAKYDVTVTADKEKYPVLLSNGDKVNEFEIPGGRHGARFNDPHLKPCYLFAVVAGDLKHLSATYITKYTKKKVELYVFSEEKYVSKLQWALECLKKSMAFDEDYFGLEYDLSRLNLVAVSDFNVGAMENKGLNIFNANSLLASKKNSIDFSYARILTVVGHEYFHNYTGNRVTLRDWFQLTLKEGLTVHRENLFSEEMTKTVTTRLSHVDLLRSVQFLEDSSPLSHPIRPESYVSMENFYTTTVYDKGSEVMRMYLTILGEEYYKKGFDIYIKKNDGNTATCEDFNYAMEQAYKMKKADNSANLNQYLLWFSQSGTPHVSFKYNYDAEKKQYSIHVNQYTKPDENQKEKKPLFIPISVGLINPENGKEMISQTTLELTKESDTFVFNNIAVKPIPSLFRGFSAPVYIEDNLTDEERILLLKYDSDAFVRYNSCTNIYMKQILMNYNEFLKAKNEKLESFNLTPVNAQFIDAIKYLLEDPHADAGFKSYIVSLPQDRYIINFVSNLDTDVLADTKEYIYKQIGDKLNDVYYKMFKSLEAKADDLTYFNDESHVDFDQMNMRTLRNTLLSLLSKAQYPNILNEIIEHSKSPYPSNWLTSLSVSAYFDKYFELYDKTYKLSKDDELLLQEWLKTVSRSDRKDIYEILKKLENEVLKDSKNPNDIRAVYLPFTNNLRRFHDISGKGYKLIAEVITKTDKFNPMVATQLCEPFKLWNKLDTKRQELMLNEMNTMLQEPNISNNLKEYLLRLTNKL

Nonstructural protein 1 = Nonstructural protein 1 (Influenza A virus, UniProt Q194T2); assay type: functional, Influenza A virus (A/California/07/2009(H1N1))
Sequence of Nonstructural protein 1 (Q194T2 whole entry): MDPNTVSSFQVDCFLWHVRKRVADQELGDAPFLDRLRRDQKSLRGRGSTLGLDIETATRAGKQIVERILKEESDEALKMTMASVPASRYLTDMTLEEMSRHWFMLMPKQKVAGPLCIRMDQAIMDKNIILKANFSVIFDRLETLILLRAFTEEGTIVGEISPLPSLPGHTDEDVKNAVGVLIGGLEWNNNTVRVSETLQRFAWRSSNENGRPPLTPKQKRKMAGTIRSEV

cells = assay type: functional
[3] = cytotoxicity toward NIH3T3 fibroblasts, dose response, counter-screen, cell-based, ATP luminescence, mouse fibroblasts (AID 2010); assay type: functional;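 further: cells exposed to compound for about 90 hours before reading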
[4] = inhibitors of intracellular T. cruzi replication, confirmation, NIH3T3 host cells, beta-gal luminescence (AID 2044); assay type: functional, cell-based;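 further: intracellular parasites grown in NIH/3T3 mouse fibroblasts as host cells; luminescent beta-galactosidase reporter signal from transgenic T. cruzi replicating inside host cells; inhibitors lower the luminescence signal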
[5] = biological target: T2, Ubiquitin-conjugating enzyme E2 N (Homo sapiens, UniProt P61088); assay type: functional;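 further: Dose-response confirmation in a TR-FRET assay detecting UBC13-driven polyubiquitin chain formation, inhibition measured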
T2 sequence (P61088 whole entry): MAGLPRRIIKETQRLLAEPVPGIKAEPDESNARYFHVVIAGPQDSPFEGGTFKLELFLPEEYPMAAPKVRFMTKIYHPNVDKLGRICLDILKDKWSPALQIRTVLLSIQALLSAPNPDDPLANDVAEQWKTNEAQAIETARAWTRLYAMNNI

[6] = biological target: T3, Replicative DNA helicase DnaB (Mycobacterium tuberculosis, UniProt P9WMR3); test: DnaB intein splicing inhibitors, dose response, biochemical, cell-free fluorescence (AID 449749); assay type: functional
T3 sequence (P9WMR3 whole entry): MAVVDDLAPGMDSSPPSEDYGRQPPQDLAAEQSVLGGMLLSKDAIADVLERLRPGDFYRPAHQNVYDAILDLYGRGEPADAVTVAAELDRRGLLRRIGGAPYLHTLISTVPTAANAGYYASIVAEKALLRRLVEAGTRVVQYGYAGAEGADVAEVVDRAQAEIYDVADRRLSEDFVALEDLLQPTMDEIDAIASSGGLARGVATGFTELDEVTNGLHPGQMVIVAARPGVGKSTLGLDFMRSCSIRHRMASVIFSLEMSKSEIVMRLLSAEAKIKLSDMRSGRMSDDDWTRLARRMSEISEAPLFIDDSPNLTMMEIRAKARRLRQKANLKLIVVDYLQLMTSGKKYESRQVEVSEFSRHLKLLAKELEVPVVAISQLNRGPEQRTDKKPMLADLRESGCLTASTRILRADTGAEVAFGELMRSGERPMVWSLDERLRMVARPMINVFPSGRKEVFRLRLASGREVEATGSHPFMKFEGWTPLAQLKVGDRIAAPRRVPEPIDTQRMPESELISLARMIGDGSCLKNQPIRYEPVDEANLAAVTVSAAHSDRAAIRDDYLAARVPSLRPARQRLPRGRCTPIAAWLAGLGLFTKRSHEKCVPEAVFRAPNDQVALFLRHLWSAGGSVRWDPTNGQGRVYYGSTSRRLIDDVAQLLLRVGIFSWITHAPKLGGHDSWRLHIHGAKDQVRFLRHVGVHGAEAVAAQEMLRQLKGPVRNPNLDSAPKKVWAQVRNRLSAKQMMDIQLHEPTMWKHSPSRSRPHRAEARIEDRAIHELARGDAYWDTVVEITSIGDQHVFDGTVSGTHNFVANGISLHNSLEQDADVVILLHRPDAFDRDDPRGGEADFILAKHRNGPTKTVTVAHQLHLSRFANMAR

Protein RecA = biological target: T4, Protein RecA (Mycobacterium tuberculosis, UniProt P9WHJ3); test: Fluorescence Cell-Free Homogeneous Dose Retest to Identify Inhibitors of RecA-Intein Splicing Activity. [Related pubchem assays (depositor defined):AID2097, AID2223, AID489010, AID492950]; assay type: functional
T4 sequence (P9WHJ3 whole entry): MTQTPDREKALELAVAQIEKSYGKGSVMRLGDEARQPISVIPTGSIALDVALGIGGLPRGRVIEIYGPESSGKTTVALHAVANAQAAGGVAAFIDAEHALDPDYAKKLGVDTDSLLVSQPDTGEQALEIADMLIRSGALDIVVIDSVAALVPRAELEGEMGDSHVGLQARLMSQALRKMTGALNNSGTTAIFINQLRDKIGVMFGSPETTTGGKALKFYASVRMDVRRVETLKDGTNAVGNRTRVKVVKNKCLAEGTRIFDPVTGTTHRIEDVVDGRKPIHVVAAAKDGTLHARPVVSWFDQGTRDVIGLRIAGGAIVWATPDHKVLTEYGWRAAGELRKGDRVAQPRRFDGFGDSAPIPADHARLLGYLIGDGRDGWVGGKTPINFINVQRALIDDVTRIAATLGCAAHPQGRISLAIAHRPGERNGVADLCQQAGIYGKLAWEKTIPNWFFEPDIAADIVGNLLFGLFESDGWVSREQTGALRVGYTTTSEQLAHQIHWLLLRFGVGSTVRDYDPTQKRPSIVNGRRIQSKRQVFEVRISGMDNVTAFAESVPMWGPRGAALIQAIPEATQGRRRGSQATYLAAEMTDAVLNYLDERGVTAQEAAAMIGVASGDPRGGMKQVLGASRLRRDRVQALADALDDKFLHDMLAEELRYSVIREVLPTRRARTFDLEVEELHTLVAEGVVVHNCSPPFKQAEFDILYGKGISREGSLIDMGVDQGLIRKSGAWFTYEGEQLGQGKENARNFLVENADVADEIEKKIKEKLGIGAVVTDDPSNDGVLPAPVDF

Genome polyprotein = Genome polyprotein (dengue virus type 2, UniProt P29990); test: Dengue-2 NS5 methyltransferase inhibitors, primary screen, biochemical, confirmation dose response (AID 588689); assay type: functional
Sequence of Genome polyprotein (P29990 2492-3391 limits assumed): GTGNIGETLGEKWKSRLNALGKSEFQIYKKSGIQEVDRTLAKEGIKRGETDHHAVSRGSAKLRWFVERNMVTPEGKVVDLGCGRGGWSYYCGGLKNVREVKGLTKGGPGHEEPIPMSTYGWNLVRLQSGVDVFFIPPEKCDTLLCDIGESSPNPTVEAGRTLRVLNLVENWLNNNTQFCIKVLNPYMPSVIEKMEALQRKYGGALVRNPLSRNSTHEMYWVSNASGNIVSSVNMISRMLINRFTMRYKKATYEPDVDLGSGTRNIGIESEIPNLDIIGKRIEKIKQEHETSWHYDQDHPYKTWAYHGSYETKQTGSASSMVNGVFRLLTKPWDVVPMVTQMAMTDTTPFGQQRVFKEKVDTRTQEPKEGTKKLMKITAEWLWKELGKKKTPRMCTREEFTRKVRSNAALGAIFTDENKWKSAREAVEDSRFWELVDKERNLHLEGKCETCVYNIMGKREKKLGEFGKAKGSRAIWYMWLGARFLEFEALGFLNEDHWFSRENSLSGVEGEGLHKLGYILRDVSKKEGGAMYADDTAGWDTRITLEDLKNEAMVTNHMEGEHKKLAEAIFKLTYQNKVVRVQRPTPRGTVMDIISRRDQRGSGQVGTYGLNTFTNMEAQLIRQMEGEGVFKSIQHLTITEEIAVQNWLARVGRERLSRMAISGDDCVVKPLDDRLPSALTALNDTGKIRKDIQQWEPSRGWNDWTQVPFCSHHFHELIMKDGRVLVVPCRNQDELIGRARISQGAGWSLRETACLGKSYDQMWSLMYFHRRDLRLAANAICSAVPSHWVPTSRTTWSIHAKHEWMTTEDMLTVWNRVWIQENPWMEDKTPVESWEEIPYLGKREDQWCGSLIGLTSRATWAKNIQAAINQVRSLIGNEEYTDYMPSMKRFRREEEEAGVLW

Row | SMILES | CC50 [1] | CC50 [2] | IC50 (cells) | further results
1 | COc1ccc(CCCC(=O)NCc2ccccc2)cc1C | 9.44 µM (active) | > 20 µM (active) | – | –
2 | COc1cc(/C=C2\SC(c3ccccc3)=NC2=O)cc(Cl)c1O | – | – | – | IC50 (Aminopeptidase N): 20 µM (active); IC50 (Nonstructural protein 1): 12.7 µM (active)
3 | O=C(CC(=O)c1ccccc1O)c1cccc(F)c1 | > 40 µM (active) | 16.5 µM (active) | 17.4 µM (active) | –
4 | O=C(Nc1ccccc1N1CCN(C(=O)c2ccc(Cl)cc2)CC1)c1ccc([N+](=O)[O-])o1 | 12.8 µM (active) | 5.96 µM (active) | – | EC50 [3]: 37.2 µM (active); EC50 [4]: 1.32 µM (active)
5 | CCc1ccc(OCC(=O)NNC(=O)c2cnccn2)c(Br)c1 | > 40 µM (active) | 18.8 µM (active) | 9.66 µM (active) | IC50 [5]: > 20 µM (inactive)
6 | Oc1c2c(nc3c(-c4ccccc4)cnn13)CCCC2 | > 40 µM (active) | > 20 µM (active) | 44 µM (active) | –
7 | Cc1oc2cc([N+](=O)[O-])c(O)c([N+](=O)[O-])c2c1C(=O)c1ccc(Br)cc1 | – | – | – | IC50 (Aminopeptidase N): 77 µM (active); AC50 [6]: 8.65 µM (active); EC50 (Protein RecA): 7.96 µM (active); IC50 (Genome polyprotein): 45.2 µM (active)
